Results published in US11098038B2, “Imidazole-based anticancer agents and derivatives thereof, and methods of making and using same” (The University of Toledo, priority 2017, dated 2021).

Key:
CCRF-CEM = assay: NCI 60 screen, CCRF-CEM; format: cell-based; conditions: Homo sapiens, Leukemia
Protocol: (§1) The compounds synthesized were tested at the National Cancer Institute (NCI) for anti-proliferative activity in the 60 human tumor cell line assay.

HL-60(TB) = assay: NCI 60 screen, HL-60(TB); format: cell-based; conditions: Homo sapiens, Leukemia
Protocol: as §1

MOLT-4 = assay: NCI 60 screen, MOLT-4; format: cell-based; conditions: Homo sapiens, Leukemia
Protocol: as §1

RPMI-8226 = assay: NCI 60 screen, RPMI-8226; format: cell-based; conditions: Homo sapiens, Leukemia
Protocol: as §1

A549/ATCC = assay: NCI 60 screen, A549/ATCC; format: cell-based; conditions: Homo sapiens, Non-Small Cell Lung
Protocol: as §1

EKVX = assay: NCI 60 screen, EKVX; format: cell-based; conditions: Homo sapiens, Non-Small Cell Lung
Protocol: as §1

HOP-62 = assay: NCI 60 screen, HOP-62; format: cell-based; conditions: Homo sapiens, Non-Small Cell Lung
Protocol: as §1

HOP-92 = assay: NCI 60 screen, HOP-92; format: cell-based; conditions: Homo sapiens, Non-Small Cell Lung
Protocol: as §1

NCI-H226 = assay: NCI 60 screen, NCI-H226; format: cell-based; conditions: Homo sapiens, Non-Small Cell Lung
Protocol: as §1

NCI-H23 = assay: NCI 60 screen, NCI-H23; format: cell-based; conditions: Homo sapiens, Non-Small Cell Lung
Protocol: as §1

NCI-322M = assay: NCI 60 screen, NCI-322M; format: cell-based; conditions: Homo sapiens, Non-Small Cell Lung
Protocol: as §1

NCI-460 = assay: NCI 60 screen, NCI-460; format: cell-based; conditions: Homo sapiens, Non-Small Cell Lung
Protocol: as §1

NCI-H522 = assay: NCI 60 screen, NCI-H522; format: cell-based; conditions: Homo sapiens, Non-Small Cell Lung
Protocol: as §1

COLO 205 = assay: NCI 60 screen, COLO 205; format: cell-based; conditions: Homo sapiens, Colon
Protocol: as §1

HCC-2998 = assay: NCI 60 screen, HCC-2998; format: cell-based; conditions: Homo sapiens, Colon
Protocol: as §1

HCT-116 = assay: NCI 60 screen, HCT-116; format: cell-based; conditions: Homo sapiens, Colon
Protocol: as §1

HCT15 = assay: NCI 60 screen, HCT15; format: cell-based; conditions: Homo sapiens, HCT-15, Colon
Protocol: as §1

HT29 = assay: NCI 60 screen, HT29; format: cell-based; conditions: Homo sapiens, HT-29, Colon
Protocol: as §1

KM12 = assay: NCI 60 screen, KM12; format: cell-based; conditions: Homo sapiens, Colon
Protocol: as §1

SW-620 = assay: NCI 60 screen, SW-620; format: cell-based; conditions: Homo sapiens, Colon
Protocol: as §1

SF-268 = assay: NCI 60 screen, SF-268; format: cell-based; conditions: Homo sapiens, CNS
Protocol: as §1

SF-295 = assay: NCI 60 screen, SF-295; format: cell-based; conditions: Homo sapiens, CNS
Protocol: as §1

SF-539 = assay: NCI 60 screen, SF-539; format: cell-based; conditions: Homo sapiens, CNS
Protocol: as §1

SNB-19 = assay: NCI 60 screen, SNB-19; format: cell-based; conditions: Homo sapiens, CNS
Protocol: as §1

SNB-75 = assay: NCI 60 screen, SNB-75; format: cell-based; conditions: Homo sapiens, CNS
Protocol: as §1

U251 = assay: NCI 60 screen, U251; format: cell-based; conditions: Homo sapiens, U-251, CNS
Protocol: as §1

LOX IMVI = assay: NCI 60 screen, LOX IMVI; format: cell-based; conditions: Homo sapiens, Melanoma
Protocol: as §1

MALME-3M = assay: NCI 60 screen, MALME-3M; format: cell-based; conditions: Homo sapiens, Melanoma
Protocol: as §1

MDA-MB-435 = assay: NCI 60 screen, MDA-MB-435; format: cell-based; conditions: Homo sapiens, Melanoma
Protocol: as §1

SK-MEL-2 [1] = assay: NCI 60 screen, SK-MEL-2 (first line); format: cell-based; conditions: Homo sapiens; Melanoma, SK-MEL-2 (first of two lines so named, r37)
Protocol: as §1

SK-MEL-2 [2] = assay: NCI 60 screen, SK-MEL-2 (second line); format: cell-based; conditions: Homo sapiens; Melanoma, SK-MEL-2 (second of two lines so named, r38)
Protocol: as §1

SK-MEL-5 = assay: NCI 60 screen, SK-MEL-5; format: cell-based; conditions: Homo sapiens, Melanoma
Protocol: as §1

UACC-257 = assay: NCI 60 screen, UACC-257; format: cell-based; conditions: Homo sapiens, Melanoma
Protocol: as §1

UACC-62 = assay: NCI 60 screen, UACC-62; format: cell-based; conditions: Homo sapiens, Melanoma
Protocol: as §1

IGROV1 = assay: NCI 60 screen, IGROV1; format: cell-based; conditions: Homo sapiens, IGROV-1, Ovarian
Protocol: as §1

OVCAR-3 = assay: NCI 60 screen, OVCAR-3; format: cell-based; conditions: Homo sapiens, Ovarian
Protocol: as §1

OVCAR-4 = assay: NCI 60 screen, OVCAR-4; format: cell-based; conditions: Homo sapiens, Ovarian
Protocol: as §1

OVCAR-5 = assay: NCI 60 screen, OVCAR-5; format: cell-based; conditions: Homo sapiens, Ovarian
Protocol: as §1

OVCAR-8 = assay: NCI 60 screen, OVCAR-8; format: cell-based; conditions: Homo sapiens, Ovarian
Protocol: as §1

NCI/ADR-RES = assay: NCI 60 screen, NCI/ADR-RES; format: cell-based; conditions: Homo sapiens, Ovarian
Protocol: as §1

SK-OV-3 = assay: NCI 60 screen, SK-OV-3; format: cell-based; conditions: Homo sapiens, Ovarian
Protocol: as §1

786-0 = assay: NCI 60 screen, 786-0; format: cell-based; conditions: Homo sapiens, Renal
Protocol: as §1

A498 = assay: NCI 60 screen, A498; format: cell-based; conditions: Homo sapiens, Renal
Protocol: as §1

ACHN = assay: NCI 60 screen, ACHN; format: cell-based; conditions: Homo sapiens, Renal
Protocol: as §1

CAKI-1 = assay: NCI 60 screen, CAKI-1; format: cell-based; conditions: Homo sapiens, Renal
Protocol: as §1

RXF393 = assay: NCI 60 screen, RXF393; format: cell-based; conditions: Homo sapiens, RXF 393, Renal
Protocol: as §1

SN12C = assay: NCI 60 screen, SN12C; format: cell-based; conditions: Homo sapiens, Renal
Protocol: as §1

TK-10 = assay: NCI 60 screen, TK-10; format: cell-based; conditions: Homo sapiens, Renal
Protocol: as §1

UO-31 = assay: NCI 60 screen, UO-31; format: cell-based; conditions: Homo sapiens, Renal
Protocol: as §1

PC-3 = assay: NCI 60 screen, PC-3; format: cell-based; conditions: Homo sapiens, Prostatic
Protocol: as §1

DU-145 = assay: NCI 60 screen, DU-145; format: cell-based; conditions: Homo sapiens, Prostatic
Protocol: as §1

MCF7 = assay: NCI 60 screen, MCF7; format: cell-based; conditions: Homo sapiens, Breast
Protocol: as §1

MDA-MB-231/ATCC = assay: NCI 60 screen, MDA-MB-231/ATCC; format: cell-based; conditions: Homo sapiens, Breast
Protocol: as §1

HS 578T = assay: NCI 60 screen, HS 578T; format: cell-based; conditions: Homo sapiens, Breast
Protocol: as §1

BT-549 = assay: NCI 60 screen, BT-549; format: cell-based; conditions: Homo sapiens, Breast
Protocol: as §1

T-47D = assay: NCI 60 screen, T-47D; format: cell-based; conditions: Homo sapiens, T47D, Breast
Protocol: as §1

MDA-MB-468 = assay: NCI 60 screen, MDA-MB-468; format: cell-based; conditions: Homo sapiens, Breast
Protocol: as §1

With `Cn1ccnc1C(=O)/C=C/c1ccc(CC(=O)Nc2ccc(Cl)cc2)cc1` [Compound 30, (E)-N-(4-chlorophenyl)-2-(4-(3-(1-methyl-1H-imidazol-2-yl)-3-oxoprop-1-en-1-yl)phenyl)acetamide] the GI50 (CCRF-CEM) was 1460 nM, the GI50 (HL-60(TB)) was 4810 nM and the GI50 (MOLT-4) was 1740 nM. It also gave a GI50 (RPMI-8226) of 959 nM, a GI50 (A549/ATCC) of 1150 nM and a GI50 (EKVX) of 1560 nM. It also gave a GI50 (HOP-62) of 2160 nM, a GI50 (HOP-92) of 2500 nM and a GI50 (NCI-H226) of 7420 nM. For the same compound, the GI50 (NCI-H23) was 2040 nM, the GI50 (NCI-322M) was 3990 nM and the GI50 (NCI-460) was 1580 nM. For the same compound, the GI50 (NCI-H522) was 4850 nM, the GI50 (COLO 205) was 9440 nM and the GI50 (HCC-2998) was 3420 nM. For the same compound, the GI50 (HCT-116) was 1310 nM, the GI50 (HCT15) was 999 nM and the GI50 (HT29) was 889 nM. For the same compound, the GI50 (KM12) was 1510 nM, the GI50 (SW-620) was 1250 nM and the GI50 (SF-268) was 1240 nM. For the same compound, the GI50 (SF-295) was 7390 nM, the GI50 (SF-539) was 6400 nM and the GI50 (SNB-19) was 1770 nM. The GI50 (SNB-75) was 1900 nM, the GI50 (U251) was 1100 nM and the GI50 (LOX IMVI) was 1070 nM. It also gave a GI50 (MALME-3M) of 14200 nM, a GI50 (MDA-MB-435) of 9150 nM and a GI50 (SK-MEL-2 [1]) of 25000 nM. For the same compound, the GI50 (SK-MEL-2 [2]) was 25000 nM, the GI50 (SK-MEL-5) was 14400 nM and the GI50 (UACC-257) was 25000 nM. For the same compound, the GI50 (UACC-62) was 6500 nM, the GI50 (IGROV1) was 5270 nM and the GI50 (OVCAR-3) was 1030 nM. It also gave a GI50 (OVCAR-4) of 2180 nM, a GI50 (OVCAR-5) of 9980 nM and a GI50 (OVCAR-8) of 3490 nM. The GI50 (NCI/ADR-RES) was 2220 nM, the GI50 (SK-OV-3) was 8790 nM and the GI50 (786-0) was 1600 nM. It also gave a GI50 (A498) of 25000 nM, a GI50 (ACHN) of 15000 nM and a GI50 (CAKI-1) of 13500 nM. The GI50 (RXF393) was 2970 nM, the GI50 (SN12C) was 3040 nM and the GI50 (TK-10) was 12300 nM. It also gave a GI50 (UO-31) of 2270 nM, a GI50 (PC-3) of 1370 nM and a GI50 (DU-145) of 1420 nM. For the same compound, the GI50 (MCF7) was 891 nM, the GI50 (MDA-MB-231/ATCC) was 5230 nM and the GI50 (HS 578T) was 15700 nM. For the same compound, the GI50 (BT-549) was 3530 nM, the GI50 (T-47D) was 4300 nM and the GI50 (MDA-MB-468) was 1030 nM. It also gave a melting point of 250 °C.

With `O=C(Cc1ccc(/C=C/C(=O)c2ncc[nH]2)cc1)Nc1cc(F)c(F)c(F)c1` [Compound 33, (E)-2-(4-(3-(1H-imidazol-2-yl)-3-oxoprop-1-en-1-yl)phenyl)-N-(3,4,5-trifluorophenyl) acetamide] the melting point was 255 °C.

`O=C(Cc1ccc(/C=C/C(=O)c2ncc[nH]2)cc1)Nc1cccc2ccccc12` [Compound 17, (E)-2-(4-(3-(1H-imidazol-2-yl)-3-oxoprop-1-en-1-yl)phenyl)-N-(naphthalen-1-yl)acetamide] gave a melting point of 229 to 230 °C.

For `O=C(Cc1ccc(/C=C/C(=O)c2ncc[nH]2)cc1)NC1CCCCC1` [Compound 23, (E)-2-(4-(3-(1H-imidazol-2-yl)-3-oxoprop-1-en-1-yl)phenyl)-N-cyclohexylacetamide], the melting point was 208.5 °C.

Work on `COc1ccc(NC(=O)Cc2ccc(/C=C/C(=O)c3ncc[nH]3)cc2)cc1` [Compound 19, (E)-2-(4-(3-(1H-imidazol-2-yl)-3-oxoprop-1-en-1-yl)phenyl)-N-(4-methoxyphenyl) acetamide] yielded a melting point of 224 to 226 °C.

Work on `O=C(Cc1ccc(/C=C/C(=O)c2ncc[nH]2)cc1)Nc1ccccc1` [Compound 21, (E)-2-(4-(3-(1H-imidazol-2-yl)-3-oxoprop-1-en-1-yl)phenyl)-N-phenylacetamide] yielded a melting point of 211 to 214 °C.
